In ChEMBL document CHEMBL3885881, “DrugMatrix”:

Species on record: Rattus norvegicus
Test: DrugMatrix - Regimen: Daily Repeat
Type: toxicity, organism-based, Sprague-Dawley
Set-up: regimen Daily Repeat, gender Male, age 6-8 weeks
Settings: in vivo, po, route oral GAVAGE, […]; for ABSOLUTE BASOPHIL / ABSOLUTE EOSINOPHIL / ABSOLUTE LYMPHOCYTE / ABSOLUTE MONOCYTE / ABSOLUTE SEGMENTED NEUTROPHIL / BASOPHIL / EOSINOPHIL / ERYTHROCYTE COUNT / HEMATOCRIT / HEMOGLOBIN / LEUKOCYTE COUNT / LYMPHOCYTE / MEAN CORPUSCULAR HEMOGLOBIN / MEAN CORPUSCULAR HEMOGLOBIN CONCENTRATION / MEAN CORPUSCULAR VOLUME / MONOCYTE / NEUTROPHIL / NUCLEATED RED BLOOD CELLS / PLATELET COUNT: tissue Blood; for ALANINE AMINOTRANSFERASE / ALBUMIN / ALKALINE PHOSPHATASE / ASPARTATE AMINOTRANSFERASE / BLOOD UREA NITROGEN / CARBON DIOXIDE / CHLORIDE / CHOLESTEROL / CREATINE PHOSPHOKINASE / CREATININE / GLUCOSE / LACTATE DEHYDROGENASE / LIPASE / PHOSPHORUS / POTASSIUM / SODIUM / TOTAL BILIRUBIN / TOTAL PROTEIN / URIC ACID: tissue Plasma
[1] = 0 mg/kg, 72 h, dose level Control, time 3 day
[2] = 0 mg/kg, 120 h, dose level Control, time 5 day
[3] = 1 mg/kg, 72 h, dose level Low, time 3 day

## CCOC(=O)C1=C(C)NC(C)=C(C(=O)OCC)C1c1ccccc1/C=C/C(=O)OC(C)(C)C [LACIDIPINE]
[1]
  ABSOLUTE BASOPHIL: 0 CELLS/uL
  ABSOLUTE EOSINOPHIL: 13.67 CELLS/uL
  ABSOLUTE LYMPHOCYTE: 10069.5 CELLS/uL
  ABSOLUTE MONOCYTE: 50 CELLS/uL
  ABSOLUTE SEGMENTED NEUTROPHIL: 516.83 CELLS/uL
  BASOPHIL: 0%
  EOSINOPHIL: 0.17%
  ERYTHROCYTE COUNT: 5.44 x10E6/uL
  HEMATOCRIT: 33.88%
  HEMOGLOBIN: 13.23 G/DL
  LEUKOCYTE COUNT: 10.65 x10E3/uL
  LYMPHOCYTE: 94.67%
  MEAN CORPUSCULAR HEMOGLOBIN: 24.37 pg
  MEAN CORPUSCULAR HEMOGLOBIN CONCENTRATION: 39.05 G/DL
  MEAN CORPUSCULAR VOLUME: 62.38 fL
  MONOCYTE: 0.67%
  NEUTROPHIL: 4.5%
  NUCLEATED RED BLOOD CELLS: 0.33 /100WBC
  PLATELET COUNT: 414.5 x10E3/uL
  ALANINE AMINOTRANSFERASE: 72 u/L
  ALBUMIN: 3.75 G/DL
  ALKALINE PHOSPHATASE: 375 u/L
  ASPARTATE AMINOTRANSFERASE: 87.5 u/L
  BLOOD UREA NITROGEN: 14 mg/dL
  CARBON DIOXIDE: 27.5 mmol/L
  CHLORIDE: 95.83 MEQ/L
  CHOLESTEROL: 68.5 mg/dL
  CREATINE PHOSPHOKINASE: 284.33 u/L
  CREATININE: 0.16 mg/dL
  GLUCOSE: 156.67 mg/dL
  LACTATE DEHYDROGENASE: 101.83 u/L
  LIPASE: 9.67 u/L
  PHOSPHORUS: 10.33 mg/dL
  POTASSIUM: 5.22 MEQ/L
  SODIUM: 137.67 MEQ/L
  TOTAL BILIRUBIN: 0.13 mg/dL
  TOTAL PROTEIN: 5.43 G/DL
  URIC ACID: 0.8 mg/dL
[2]
  ABSOLUTE BASOPHIL: 0 CELLS/uL
  ABSOLUTE EOSINOPHIL: 20.67 CELLS/uL
  ABSOLUTE LYMPHOCYTE: 11518.33 CELLS/uL
  ABSOLUTE MONOCYTE: 47 CELLS/uL
  ABSOLUTE SEGMENTED NEUTROPHIL: 614 CELLS/uL
  BASOPHIL: 0%
  EOSINOPHIL: 0.17%
  ERYTHROCYTE COUNT: 5.61 x10E6/uL
  HEMATOCRIT: 34.25%
  HEMOGLOBIN: 13.38 G/DL
  LEUKOCYTE COUNT: 12.2 x10E3/uL
  LYMPHOCYTE: 94.33%
  MEAN CORPUSCULAR HEMOGLOBIN: 23.83 pg
  MEAN CORPUSCULAR HEMOGLOBIN CONCENTRATION: 39.08 G/DL
  MEAN CORPUSCULAR VOLUME: 61.03 fL
  MONOCYTE: 0.33%
  NEUTROPHIL: 5.17%
  NUCLEATED RED BLOOD CELLS: 0 /100WBC
  PLATELET COUNT: 941.83 x10E3/uL
  ALANINE AMINOTRANSFERASE: 68.83 u/L
  ALBUMIN: 4.12 G/DL
  ALKALINE PHOSPHATASE: 492.67 u/L
  ASPARTATE AMINOTRANSFERASE: 83.33 u/L
  BLOOD UREA NITROGEN: 14 mg/dL
  CARBON DIOXIDE: 37 mmol/L
  CHLORIDE: 98.67 MEQ/L
  CHOLESTEROL: 56.5 mg/dL
  CREATINE PHOSPHOKINASE: 167.33 u/L
  CREATININE: 0.17 mg/dL
  GLUCOSE: 157.5 mg/dL
  LACTATE DEHYDROGENASE: 104.83 u/L
  LIPASE: 10 u/L
  PHOSPHORUS: 10.43 mg/dL
  POTASSIUM: 5.46 MEQ/L
  SODIUM: 143.87 MEQ/L
  TOTAL BILIRUBIN: 0.17 mg/dL
  TOTAL PROTEIN: 5.72 G/DL
  URIC ACID: 0.85 mg/dL
[3]
  ABSOLUTE BASOPHIL: 0 CELLS/uL
  ABSOLUTE EOSINOPHIL: 98 CELLS/uL
  ABSOLUTE LYMPHOCYTE: 10170.33 CELLS/uL
  ABSOLUTE MONOCYTE: 49.33 CELLS/uL
  ABSOLUTE SEGMENTED NEUTROPHIL: 815.67 CELLS/uL
  BASOPHIL: 0%
  EOSINOPHIL: 0.67%
  ERYTHROCYTE COUNT: 5.08 x10E6/uL
  HEMATOCRIT: 32.6%
  HEMOGLOBIN: 13 G/DL
  LEUKOCYTE COUNT: 11.13 x10E3/uL
  LYMPHOCYTE: 91%
  MEAN CORPUSCULAR HEMOGLOBIN: 25.63 pg
  MEAN CORPUSCULAR HEMOGLOBIN CONCENTRATION: 39.9 G/DL
  MEAN CORPUSCULAR VOLUME: 64.17 fL
  MONOCYTE: 0.67%
  NEUTROPHIL: 7.67%
  NUCLEATED RED BLOOD CELLS: 0 /100WBC
  PLATELET COUNT: 968 x10E3/uL
  ALANINE AMINOTRANSFERASE: 76 u/L
  ALBUMIN: 3.93 G/DL
  ALKALINE PHOSPHATASE: 408.67 u/L
  ASPARTATE AMINOTRANSFERASE: 89 u/L
  BLOOD UREA NITROGEN: 12.33 mg/dL
  CARBON DIOXIDE: 25 mmol/L
  CHLORIDE: 96.67 MEQ/L
  CHOLESTEROL: 78 mg/dL
  CREATINE PHOSPHOKINASE: 356.67 u/L
  CREATININE: 0.21 mg/dL
  GLUCOSE: 154.33 mg/dL
  LACTATE DEHYDROGENASE: 122.67 u/L
  LIPASE: 12 u/L
  PHOSPHORUS: 9.57 mg/dL
  POTASSIUM: 5.36 MEQ/L
  SODIUM: 139.33 MEQ/L
  TOTAL BILIRUBIN: 0.13 mg/dL
  TOTAL PROTEIN: 5.4 G/DL
  URIC ACID: 0.5 mg/dL
